Source: patent US8067640B2, “Method for the separation of intermediates which may be used for the preparation of escitalopram” (H. Lundbeck A/S, priority 2002, dated 2011)

Assay: Partition of compound A and compound B between aqueous layer and toluene layer in the presence of various acids
Settings: 40° C., 1 hour
Description: Thus-obtained mixed solvent was separated into aqueous layer and toluene layer, and then the concentrations of compound A and B in each layer were measured. Partition coefficients Ka or Kb are calculated according to the following equation. Ka=(Concentration of the compound A in aqueous layer)/(Concentration of the compound A in toluene layer) Kb=(Concentration of the compound B in aqueous layer)/(Concentration of the compound B in toluene layer)

CN(C)CCC[C@](O)(c1ccc(F)cc1)c1ccc(C#N)cc1CO [compound A, (S)-4-[4-dimethylamino-1-(4′-fluorophenyl)-1-hydroxybutyl]-3-hydroxymethylbenzonitrile]
Partition coefficient Ka (3-Phenylpropionic acid): 5.67 | Partition coefficient Ka (4-Biphenylcarboxylic acid): 0.87 | Partition coefficient Ka (Benzoic acid): 18.4 | Partition coefficient Ka (Caproic acid): 5.04 | Partition coefficient Ka (Cyclohexanecarboxylic acid): 3.89 | Partition coefficient Ka (Isobutyric acid): 39.2 | Partition coefficient Ka (Isophthalic acid): 7.43 | Partition coefficient Ka (Isovaleric acid): 24.4 | Partition coefficient Ka (Maleic acid): 31.1 | Partition coefficient Ka (Malonic acid): 38.5 | Partition coefficient Ka (Oxalic acid): 1092 | Partition coefficient Ka (Phthalic acid): 20.8 | Partition coefficient Ka (Pivalic acid): 9.03 | Partition coefficient Ka (Salicylic acid): 13.0 | Partition coefficient Ka (Succinic acid): 24.1 | Partition coefficient Ka (Terephthalic acid): 16.8 | Partition coefficient Ka (acid: None): 0.17 | Partition coefficient Ka (m-Chlorobenzoic acid): 4.98 | Partition coefficient Ka (m-Methoxybenzoic acid): 9.23 | Partition coefficient Ka (m-Nitrobenzoic acid): 19.5 | Partition coefficient Ka (m-Toluic acid): 6.00 | Partition coefficient Ka (o-Chlorobenzoic acid): 22.8 | Partition coefficient Ka (o-Methoxybenzoic acid): 27.1 | Partition coefficient Ka (o-Nitrobenzoic acid): 30.7 | Partition coefficient Ka (o-Toluic acid): 9.11 | Partition coefficient Ka (p-Chlorobenzoic acid): 7.01 | Partition coefficient Ka (p-Ethylbenzoic acid): 2.28 | Partition coefficient Ka (p-Fluorobenzoic acid): 14.4 | Partition coefficient Ka (p-Hydroxybenzoic acid): 70.8 | Partition coefficient Ka (p-Methoxybenzoic acid): 12.3 | Partition coefficient Ka (p-Toluenesulfonic acid): 164 | Partition coefficient Ka (p-Toluic acid): 5.97
